Experimental data taken from article PMC5039424 (2016).

System: yeast tRNA^Phe (RNA, tRNA) GCGGAUUUAGCUCAGUUGGGAGAGCGCCAGACUGAAGAUCUGGAGGUCCUGUGUUCGAUCCACAGAAUUCGCACCA
Experiment: inhibition of lead(II)-induced cleavage, gel
Settings: 10 mM Mg2+, 1 mM NH4+, 0.5 mM Pb2+; 50% inhibition of Pb2+ cleavage; 50 mM Tris-HCl pH 7.5; RNA 2.4 μM

## Cc1cc2nc3ccc(N(C)C)cc3[s+]c2cc1N
  Ki: 70 ± 20 µM
